In the supplement of paper PMC10307832:

Legend:
Test in all cases: relative viability (nuclei count vs DMSO), 5 days (fraction); higher = more cells survive
CUDC-101 + Decitabine = compound: C#Cc1cccc(Nc2ncnc3cc(OC)c(OCCCCCCC(=O)NO)cc23)c1 [CUDC-101] + Nc1ncn([C@H]2C[C@H](O)[C@@H](CO)O2)c(=O)n1 [Decitabine] (partner 2 µM)
Outline: (§1)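 Relative viability was taken as the ratio of nuclei in treated wells to nuclei in vehicle wells. Lung cancer cell lines in 1536-well plates received compounds by pin tool one day after seeding, either one drug alone or a fixed anchor-drug dose plus five library-drug doses (not always all listed) in √10 steps. Nuclei were counted on 4× images after 5 days of treatment, and values are medians of duplicate plates.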

[1] = compound: C1=CC=C2C(=C1)N=C(S2)C(C#N)C3=NC(=NC=C3)NCCC4=CN=CC=C4 + Cc1nc(NC(=O)N2CCC[C@H]2C(N)=O)sc1-c1ccnc(C(C)(C)C(F)(F)F)c1 [Alpelisib] (partner 2 µM)
Outline: as §1

NVP-TAE684 + Trametinib = compound: COc1cc(N2CCC(N3CCN(C)CC3)CC2)ccc1Nc1ncc(Cl)c(Nc2ccccc2S(=O)(=O)C(C)C)n1 [NVP-TAE684] + CC(=O)Nc1cccc(-n2c(=O)n(C3CC3)c(=O)c3c(Nc4ccc(I)cc4F)n(C)c(=O)c(C)c32)c1 [Trametinib] (partner 0.02 µM)
Outline: as §1

NVP-TAE684 + Phenformin = compound: COc1cc(N2CCC(N3CCN(C)CC3)CC2)ccc1Nc1ncc(Cl)c(Nc2ccccc2S(=O)(=O)C(C)C)n1 [NVP-TAE684] + N=C(N)NC(=N)NCCc1ccccc1 [Phenformin] (partner 250 µM)
Outline: as §1

| Cell Line | relative viability (CUDC-101 + Decitabine; first compound 0.01 µM) | relative viability (CUDC-101 + Decitabine; first compound 0.03162 µM) | relative viability (CUDC-101 + Decitabine; first compound 0.1 µM) | relative viability (CUDC-101 + Decitabine; first compound 0.3162 µM) | relative viability (CUDC-101 + Decitabine; first compound 1 µM) | relative viability ([1]; first compound 0.01581 µM) | relative viability ([1]; first compound 0.05 µM) | relative viability ([1]; first compound 0.1581 µM) | relative viability ([1]; first compound 0.5 µM) | relative viability (NVP-TAE684 + Trametinib; first compound 0.2 µM) | relative viability (NVP-TAE684 + Trametinib; first compound 0.6325 µM) | relative viability (NVP-TAE684 + Trametinib; first compound 2 µM) | relative viability (NVP-TAE684 + Phenformin; first compound 0.2 µM) | relative viability (NVP-TAE684 + Phenformin; first compound 0.6325 µM) | relative viability (NVP-TAE684 + Phenformin; first compound 2 µM) | relative viability ([1]; first compound 0.005 µM) |
| --- | --- | --- | --- | --- | --- | --- | --- | --- | --- | --- | --- | --- | --- | --- | --- | --- |
| NCI-H2170 | 0.416 | 0.514 | 0.485 | 0.444 | 0.391 | 0.801 | 0.845 | 0.838 | 0.723 | 0.861 | 0.947 | 0.916 | 0.404 | 0.364 | 0.358 | – |
| NCI-H1648 | 0.548 | 0.519 | 0.439 | 0.451 | 0.324 | – | – | – | – | 0.395 | 0.433 | 0.284 | – | – | – | – |
| NCI-H1623 | – | – | – | – | – | – | – | – | – | – | – | – | 0.552 | 0.598 | 0.484 | – |
| LU99A | 0.824 | 0.823 | 0.9 | 0.831 | 0.657 | 0.545 | 0.522 | 0.548 | 0.536 | 0.579 | 0.616 | 0.349 | 0.912 | 0.886 | 0.659 | 0.509 |
| PC-3 [JPC-3] | 0.773 | 0.717 | 0.54 | 0.723 | 0.476 | 1.02 | 0.96 | 1.08 | 0.954 | 0.721 | 0.572 | 0.58 | 0.477 | 0.436 | 0.454 | 0.935 |
| A549 | 0.297 | 0.277 | 0.218 | 0.286 | 0.276 | 0.9 | 0.696 | 1.02 | 0.82 | – | – | – | 0.153 | 0.171 | 0.122 | 0.64 |
| HCC-44 | 0.908 | 1.03 | 0.912 | 0.906 | 0.913 | 0.835 | 0.737 | 0.915 | 0.638 | 0.982 | 1.08 | 0.926 | 0.263 | 0.141 | 0.0733 | 0.716 |
| H3255 | 0.643 | 0.549 | – | 0.227 | 0.15 | 0.685 | 0.591 | 0.806 | 0.692 | 0.569 | 0.611 | 0.631 | 0.348 | 0.397 | 0.453 | 0.545 |
| LXF-289 | 0.396 | 0.418 | 0.358 | 0.367 | 0.301 | 1.15 | 1.04 | 1.12 | 0.998 | 0.608 | 0.7 | 0.624 | 0.555 | 0.52 | 0.443 | 0.979 |
| PC-14 | 0.253 | 0.249 | 0.158 | 0.179 | 0.0808 | 1.08 | 1 | 1.17 | 0.742 | 0.677 | 0.62 | 0.0712 | 0.505 | 0.488 | 0.537 | 0.708 |
| NCI-H661 | 0.544 | 0.497 | 0.487 | 0.571 | 0.307 | 0.482 | 0.61 | 0.841 | 0.798 | 0.552 | 0.616 | 0.563 | 0.275 | 0.272 | 0.242 | 0.632 |
| Calu-6 | – | – | – | – | – | 0.921 | 0.921 | 1.03 | 0.998 | – | – | – | – | – | – | 0.957 |
| NCI-H1703 | – | – | – | – | – | 0.31 | 0.344 | 0.362 | 0.357 | – | – | – | – | – | – | 0.338 |
| NCI-H1299 | – | – | – | – | – | 1.14 | 1.04 | 1.13 | 1.1 | – | – | – | – | – | – | 1.06 |
| ChaGo-K-1 | 0.558 | 0.47 | 0.555 | 0.505 | 0.492 | – | – | – | – | 0.899 | 0.843 | 0.58 | 0.533 | 0.457 | 0.339 | – |
| NCI-H1650 | 0.351 | 0.444 | 0.469 | 0.387 | 0.302 | – | – | – | – | 0.522 | 0.507 | 0.221 | 0.505 | 0.285 | 0.148 | – |
| NCI-H2228 | – | – | – | – | – | 0.715 | 0.754 | 0.818 | 0.524 | 0.312 | 0.249 | 0.23 | 0.23 | 0.158 | 0.113 | 0.513 |
| CAL-12T | – | – | – | – | – | 1.23 | 1.31 | 1.49 | 1.05 | 0.283 | 0.251 | 0.127 | 0.365 | 0.472 | 0.117 | 0.982 |
| SW 900 | 0.428 | 0.405 | 0.426 | 0.397 | 0.33 | – | – | – | – | 0.743 | 0.51 | 0.594 | 0.592 | 0.474 | 0.385 | – |
| NCI-H522 | 0.58 | 0.622 | 0.761 | 0.616 | 0.677 | – | – | – | – | 0.652 | 0.776 | 0.738 | 0.685 | 0.777 | 0.608 | – |
| IA-LM | – | – | – | – | – | 0.628 | 0.608 | 0.916 | 0.734 | – | – | – | – | – | – | – |
| ABC-1 | 0.989 | 0.92 | 0.992 | 0.985 | 1.03 | 1.05 | 1.2 | 0.961 | 1.07 | – | – | – | 0.218 | 0.226 | 0.122 | 1.05 |
